The values that follow come from publication PMC6781309, “Assessing Drug Interaction and Pharmacokinetics of Loxoprofen in Mice Treated with CYP3A Modulators” (Pharmaceutics, 2019).

For one series, the system named is CYP3A. Details: method as in PMID 17965516. The following applies: human liver microsomes; cited from earlier work.
A short description of series [1]: Plasma pharmacokinetics of LOX, cis-LOX and trans-LOX after oral LOX in mice pretreated with DEX, KTC or vehicle. The class given is in vivo, Male ICR mice. The following applies: for AUC(0-inf) / AUC(0-t) / Cmax / half-life / Tmax: male, ICR, mouse, plasma, po, 20 mg/kg, mouse plasma, LOX 20 mg/kg oral, mean ± SE, n = 3; for Cmax: read-out: Cmax; for half-life: read-out: T1/2 (elimination half-life); for Tmax: read-out: Tmax (converted). How it is done: The acclimatized animals were divided into eight groups, with each group containing 3 mice: groups I and II, vehicle (corn oil); groups III and IV, DEX-treated; groups V and VI, vehicle (10% Ethanol); and groups VII and VIII, KTC-treated group. […] Then, animals were fasted for 12 hours with free access to water before starting the experiment. […]
After the oral administration of LOX, blood from groups I, III, V, and VII was collected from the tail at 0, 5, 10, 15, 30, 60, 120, and 240 min post-administration and placed into sodium heparin-containing tubes. After the last blood collection, the mice were sacrificed by cervical dislocation. Plasma was then prepared by centrifuging the blood at 4000× g for 15 min at 4 °C and stored at −80 °C until analysis. For analysis, each sample was prepared by mixing plasma (10 µL) and 90 µL of ACN containing 0.1% formic acid and 5 µM of tolbutamide as an internal standard (IS). […] Finally, 10 µL of sample supernatant was injected into the LC-MS/MS system. The PK parameters (the maximum plasma concentration [Cmax], time to reach the maximum plasma concentration [Tmax], elimination half-life [T1/2], and area under the plasma concentrations [AUC]) were analyzed by WinNonlin software (Version 2.1, Scientific Consulting, Louisville, KY, USA).
A Shimadzu Prominence UFLC system (Kyoto, Japan) connected to a TSQ vantage triple quadrupole mass spectrometer with a HESI-II spray source incorporated with a DGU-20A5 degasser, an LC-20AD pump, a SIL-20A autosampler, and a CTO-20A column oven was used for the analyses. A shim-pack GIS C18 column (150 × 3.0 mm, […]) was used to separate analytes in the samples. Mobile phases A and B were composed of water with formic acid and ACN with 0.1% formic acid, respectively, and the flow rate was 0.50 mL/min at 40 °C. The gradient conditions were as follows: 20% of B between 0 and 0.25 min, 20–80% of B between 0.25 and 9.75 min, 80–20% of B between 9.75 and 10 min, and 20% of B between 10 and 13 min. The MS was operated under the following conditions: electrospray ionization in negative mode at 3.0 kV, capillary temperature at 350 °C, vaporizer temperature at 300 °C, sheath gas pressure at 35 Arb, and auxiliary gas pressure at 10 Arb. Finally, Xcalibur software (Thermo Fisher Scientific Inc., Waltham, MA, USA) was used for data analysis.

Series [2] is described as follows: Relative concentration of LOX and its metabolites in hepatic portal vein plasma 10 min post-LOX (HRMS). Format: in vivo, Male ICR mice. The following applies: hepatic portal vein plasma 10 min after LOX 20 mg/kg oral, n = 3; for Relative concentration in plasma (DEX average % of area, VH corn oil = 100): DEX 40 mg/kg i.p. 3 days; for Relative concentration in plasma (KTC average % of area, VH 10% ethanol = 100): KTC 60 mg/kg i.p. single dose. On the procedure:
The acclimatized animals were divided into eight groups, with each group containing 3 mice: groups I and II, vehicle (corn oil); groups III and IV, DEX-treated; groups V and VI, vehicle (10% Ethanol); and groups VII and VIII, KTC-treated group. […] Then, animals were fasted for 12 hours with free access to water before starting the experiment. After fasting, LOX (20 mg/kg) was administered orally to […].
Similarly, blood from groups II, IV, VI, and VIII was collected from the hepatic portal vein 10 min post-LOX administration to identify metabolites of LOX and to analyze drug–drug interactions. Plasma from these samples was prepared as explained above. Then, 300 µL of ACN having 0.1% formic acid and 5 µM of the IS were mixed with 100 µL of each plasma sample. […] Supernatants were transferred into tubes and dried using a Labconco Speed Vac (Labconco Corporation, Kansas City, MO, USA). […] Each supernatant was transferred into an LCMS vial, and 5 µL were injected into a high-resolution mass spectrometer (HRMS).
HRMS coupled with ultrahigh performance liquid chromatography (UHPLC) was used to detect hydroxy-LOX and other metabolites of LOX. The UHPLC system, Dionex Ultimate 3000 (Dionex Softron GmbH, Germering, Germany) consisted of an HPG-3200SD Standard binary pump, a WPS 3000 TRS analytical autosampler, and a TCC-3000 SD column compartment. In this experiment, the HRMS was a Q Exactive Focus quadrupole-Orbitrap MS (Thermo Fisher Scientific, Bremen, Germany) equipped with a heated electrospray ionization (HESI-II) ion probe.
LOX was detected as a deprotonated ion [M-H]^− at m/z 245.1175 in negative ion mode. Therefore, negative ion mode was used with the following optimized conditions for LOX: spray voltage of 2.5 kV, capillary temperature of 320 °C, auxiliary gas at 12 aux unit, aux gas heater temperature of 200 °C, sheath gas at 35 aux units, and S-lens RF level of 50. LOX and its metabolites were separated using a 150 mm × 2.1 mm, 2.6-μm reverse-phase liquid chromatography column, Kinetex® C18 column (Phenomenex, CA, USA) at 40 °C. Furthermore, MS-grade solvents were used as the mobile phase in gradient elution mode: 0.1% aqueous formic acid as Solvent A and 0.1% formic acid in ACN as Solvent B. The flow was set to 0.22 mL/min with a gradient condition of Solvent B as 10% between 0 and 0.5 min, 10–50% between 0.5 and 21.5 min, 50–95% between 21.5 and 22.5 min, 95% between 22.5 and 25.5 min, 95–10% between 25.5 and 25.6 min, and 10% between 25.6 and 30 min.

The mark [3] stands for this setting: pretreated DEX 40 mg/kg i.p. 3 days.
Setting [4] is: pretreated DEX 40 mg/kg i.p. 3 days, read-out: AUC(0–60) (converted).
Where [5] appears, read: pretreated KTC 60 mg/kg i.p. single dose.
[6] abbreviates: pretreated VH (10% ethanol) i.p. single dose.
Where [7] appears, read: pretreated VH (10% ethanol) i.p. single dose, read-out: AUC(0–60) (converted).
The mark [8] stands for this setting: pretreated VH (corn oil) i.p. 3 days.
The mark [9] stands for this setting: pretreated VH (corn oil) i.p. 3 days, read-out: AUC(0–60) (converted).

Each structure is given as a SMILES string. Values joined by “and” are separate entries in the source; they are usually repeats but may differ in a detail not shown here. Equal entries are not always repeated. Where two headings read alike, the source gives them in different places.

On to `CC(C(=O)O)c1ccc(CC2CCCC2=O)cc1` (centres unmarked) [LOX, 2-(4-((2-Oxocyclopentyl)methyl)phenyl)propanoic acid, reference compound], for which the “Effect on the metabolism of tacrolimus” value with CYP3A is on record as “slightly inhibited”. Besides, the “Detection in plasma at later time points” value in series [1] (blood collected for up to 240 min after LOX 20 mg/kg oral) was “not detected after 60 min”. For the same molecule, the AUC(0-inf) (as a rule, the area under the concentration-time curve extrapolated to infinity) in series [1] (setting [3]) was 937 ng·h/mL; in series [1] (setting [5]), 1150 ng·h/mL; in series [1] (setting [6]) it was 985 ng·h/mL; in series [1] (setting [8]) it was 1700 ng·h/mL. The AUC(0-t) is 892 ng·h/mL in series [1] (setting [4]), 1110 ng·h/mL in series [1] (setting [5]), 912 ng·h/mL in series [1] (setting [7]) and 1600 ng·h/mL in series [1] (setting [9]). Besides, the Cmax (commonly the highest concentration seen after dosing) in series [1] (setting [3]) was 2500 ± 200 ng/mL; in series [1] (setting [5]) it was 3500 ± 500 ng/mL; in series [1] (setting [6]) it was 2700 ± 300 ng/mL; in series [1] (setting [8]), 4800 ± 900 ng/mL. Moreover, the half-life in series [1] (setting [3]) came to 12 ± 0.7 min; in series [1] (setting [5]) it was 12.2 ± 0.9 min; in series [1] (setting [6]), 14.6 ± 1.1 min; in series [1] (setting [8]), 14.9 ± 0.6 min. In addition, the Tmax in series [1] (setting [3]), in series [1] (setting [5]), in series [1] (setting [6]) and in series [1] (setting [8]) was 5 min in each case. Further, in series [2], the “Relative concentration in plasma (DEX average % of area, VH corn oil = 100)” value was 74.1% and 74.1 ± 6.3%. The “Relative concentration in plasma (KTC average % of area, VH 10% ethanol = 100)” value in series [2] is 178.2% and 178.2 ± 8.3%.
As to `C[C@H](C(=O)O)c1ccc(C[C@H]2CCC[C@@H]2O)cc1` [trans-LOX, (2S)-2-[4-[[(1R,2S)-2-hydroxycyclopentyl]methyl]phenyl]propanoic acid], the AUC(0-inf) in series [1] (setting [3]) is 1430 ng·h/mL; in series [1] (setting [5]), 1580 ng·h/mL; in series [1] (setting [6]), 1520 ng·h/mL; in series [1] (setting [8]) it was 2580 ng·h/mL. Also, the AUC(0-t) is 1130 ng·h/mL in series [1] (setting [4]), 1340 ng·h/mL in series [1] (setting [5]), 1170 ng·h/mL in series [1] (setting [7]) and 2290 ng·h/mL in series [1] (setting [9]). Also, the Cmax is 2100 ± 200 ng/mL in series [1] (setting [3]), 3100 ± 300 ng/mL in series [1] (setting [5]), 2100 ± 200 ng/mL in series [1] (setting [6]) and 4400 ± 500 ng/mL in series [1] (setting [8]). Moreover, the half-life in series [1] (setting [3]) came to 26.4 ± 1.6 min; in series [1] (setting [5]), 19.8 ± 0.7 min; in series [1] (setting [6]), 26 ± 0.5 min; in series [1] (setting [8]) it was 18.2 ± 0.6 min. Moreover, the Tmax (in general, the time from dosing to the highest level) in series [1] (setting [3]) was 10.4 min; in series [1] (setting [5]), 11.7 min; in series [1] (setting [6]) it was 11.6 min; in series [1] (setting [8]) it was 9.1 min. For the same molecule, in series [2] (listed as M1), the “Relative concentration in plasma (DEX average % of area, VH corn oil = 100)” value is on record as 80.07%. Moreover, the “Relative concentration in plasma (KTC average % of area, VH 10% ethanol = 100)” value in series [2] is recorded as 158.9 ± 11.9%; in series [2] (listed as M1) it was 158.93%.
